Measured values from patent publication US20060122153A1, “Antineoplastic ether lipid compounds with modifications at the sn-2 carbon” (priority 2003, published 2006).

Experiments:
Format in all cases: cell-based, human
[1] = test system: HT29; test: NCI growth inhibition screen, colon panel; set-up: key: = means equivalent activity; + means that it appears to be significantly better (i.e., by ˜2x); < means it appears to be less active than ET18OCH3 (˜2x); a combination like =/+ or </+ means that activity is dependent upon the isomer; a combination like =/+ or </+ means that activity is dependent upon the isomer; conditions: from GI50s
Experimental: (§1) Candidates deemed suitable for in vivo testing were then synthesized in large scale quantities and some of this material was sent to the NCI's Developmental Therapeutics Program for a battery of growth inhibitory studies against various human tumor cell lines (60 cell lines, 9 different panels). The remainder of the material was used to assess in vivo efficacy using murine tumor models. Additionally, studies were conducted on the lead candidates to discern mechanism of action with particular emphasis on these agents apoptotic ability as measured by caspase 3 activity. The details (materials and methods) for these various assays are described further in the following discussion.
(§2) Ten compounds were also sent to NCI's Drug Discovery Program for screening against numerous human tumor cell lines (9 panels total: renal ovarian, colon, CNS, non-small cell lung, leukemia, breast, melanoma, and prostate). The data are shown in FIGS. 2a-i which also include data regarding D- and L-ET-18-OCH3 (listed as L-EL and D-EL in the figures). Upon examining the data, one is struck by how 1R and 1a′S standout in comparison to the other compounds, especially for the renal, ovarian, colon, and CNS panels.

[2] = test system: HCC-2998; test: NCI growth inhibition screen, colon panel; set-up: key: = means equivalent activity; + means that it appears to be significantly better (i.e., by ˜2x); < means it appears to be less active than ET18OCH3 (˜2x); a combination like =/+ or </+ means that activity is dependent upon the isomer; a combination like =/+ or </+ means that activity is dependent upon the isomer; conditions: HCC-2998, Colon; from GI50s
Experimental: as §1, §2

[3] = test system: HCT-15; test: NCI growth inhibition screen, colon panel; set-up: key: = means equivalent activity; + means that it appears to be significantly better (i.e., by ˜2x); < means it appears to be less active than ET18OCH3 (˜2x); a combination like =/+ or </+ means that activity is dependent upon the isomer; a combination like =/+ or </+ means that activity is dependent upon the isomer; conditions: HCT-15, Colon; from GI50s
Experimental: as §1, §2

[4] = test system: COLO 205; test: NCI growth inhibition screen, colon panel; set-up: key: = means equivalent activity; + means that it appears to be significantly better (i.e., by ˜2x); < means it appears to be less active than ET18OCH3 (˜2x); a combination like =/+ or </+ means that activity is dependent upon the isomer; a combination like =/+ or </+ means that activity is dependent upon the isomer; conditions: COLO 205, Colon; from GI50s
Experimental: as §1, §2

[5] = test system: SF-295; test: NCI growth inhibition screen, CNS panel; set-up: key: = means equivalent activity; + means that it appears to be significantly better (i.e., by ˜2x); < means it appears to be less active than ET18OCH3 (˜2x); a combination like =/+ or </+ means that activity is dependent upon the isomer; a combination like =/+ or </+ means that activity is dependent upon the isomer; conditions: SF-295, CNS; from GI50s
Experimental: as §1, §2

[6] = test system: U-251; test: NCI growth inhibition screen, CNS panel; set-up: key: = means equivalent activity; + means that it appears to be significantly better (i.e., by ˜2x); < means it appears to be less active than ET18OCH3 (˜2x); a combination like =/+ or </+ means that activity is dependent upon the isomer; a combination like =/+ or </+ means that activity is dependent upon the isomer; conditions: U-251, CNS; from GI50s
Experimental: as §1, §2

[7] = test system: SF-268; test: NCI growth inhibition screen, CNS panel; set-up: key: = means equivalent activity; + means that it appears to be significantly better (i.e., by ˜2x); < means it appears to be less active than ET18OCH3 (˜2x); a combination like =/+ or </+ means that activity is dependent upon the isomer; a combination like =/+ or </+ means that activity is dependent upon the isomer; conditions: SF-268, CNS; from GI50s
Experimental: as §1, §2

[8] = test system: SF-539; test: NCI growth inhibition screen, CNS panel; set-up: key: = means equivalent activity; + means that it appears to be significantly better (i.e., by ˜2x); < means it appears to be less active than ET18OCH3 (˜2x); a combination like =/+ or </+ means that activity is dependent upon the isomer; a combination like =/+ or </+ means that activity is dependent upon the isomer; conditions: SF-539, CNS; from GI50s
Experimental: as §1, §2

[9] = test system: SNB-19; test: NCI growth inhibition screen, CNS panel; set-up: key: = means equivalent activity; + means that it appears to be significantly better (i.e., by ˜2x); < means it appears to be less active than ET18OCH3 (˜2x); a combination like =/+ or </+ means that activity is dependent upon the isomer; a combination like =/+ or </+ means that activity is dependent upon the isomer; conditions: SNB-19, CNS; from GI50s
Experimental: as §1, §2

[10] = test system: OVCAR-4; test: NCI growth inhibition screen, ovarian panel; set-up: key to Performance as compared to ET-18-O—CH3: = means equivalent activity; + means that it appears to be significantly better (i.e., by ˜2x); < means it appears to be less active than ET18OCH3 (˜2x); a combination like =/+ or </+ means that activity is dependent upon the isomer; a combination like =/+ or </+ means that activity is dependent upon the isomer; conditions: for activity compared to both ET-18-OCH3 isomers (in words): OVCAR-4, NCI screen; for Performance as compared to ET-18-O—CH3: OVCAR-4, Ovarian, from GI50s
Experimental: as §1, §2

[11] = test system: OVCAR-5; test: NCI growth inhibition screen, ovarian panel; set-up: key to Performance as compared to ET-18-O—CH3: = means equivalent activity; + means that it appears to be significantly better (i.e., by ˜2x); < means it appears to be less active than ET18OCH3 (˜2x); a combination like =/+ or </+ means that activity is dependent upon the isomer; a combination like =/+ or </+ means that activity is dependent upon the isomer; conditions: for activity compared to both ET-18-OCH3 isomers (in words): OVCAR-5, NCI screen; for Performance as compared to ET-18-O—CH3: OVCAR-5, Ovarian, from GI50s
Experimental: as §1, §2

[12] = test system: LOX IMVI; test: NCI growth inhibition screen, melanoma panel; set-up: key: = means equivalent activity; + means that it appears to be significantly better (i.e., by ˜2x); < means it appears to be less active than ET18OCH3 (˜2x); a combination like =/+ or </+ means that activity is dependent upon the isomer; a combination like =/+ or </+ means that activity is dependent upon the isomer; conditions: from GI50s
Experimental: as §1, §2

| SMILES | Performance as compared to ET-18-O—CH3 [1] | Performance as compared to ET-18-O—CH3 [2] | Performance as compared to ET-18-O—CH3 [3] | Performance as compared to ET-18-O—CH3 [4] | Performance as compared to ET-18-O—CH3 [5] | Performance as compared to ET-18-O—CH3 [6] | Performance as compared to ET-18-O—CH3 [7] | Performance as compared to ET-18-O—CH3 [8] | Performance as compared to ET-18-O—CH3 [9] | activity compared to both ET-18-OCH3 isomers (in words) [10] | Performance as compared to ET-18-O—CH3 [10] | activity compared to both ET-18-OCH3 isomers (in words) [11] | Performance as compared to ET-18-O—CH3 [11] | Performance as compared to ET-18-O—CH3 [12] |
| --- | --- | --- | --- | --- | --- | --- | --- | --- | --- | --- | --- | --- | --- | --- |
| CCCCCCCCCCCCCCCCCCOC[C@@H](COP(=O)([O-])OCC[N+](C)(C)C)OS(C)(=O)=O [1a′S] | 0 | 128 | 512 | 0 | 0 | =/+ | 0 | 8192 | 0 | significantly better activity | 2048 | significantly better activity | 4096 | 0 |
| CCCCCCCCCCCCCCCCCCOCC(COP(=O)([O-])OCC[N+](C)(C)C)OS(C)(=O)=O (stereo not shown) [Compound 1aR] | = | + | = | = | = | + | = | + | = | significantly better activity | + | significantly better activity | + | = |
